Patent US7816353B2 (Exelixis, Inc., priority 2003, dated 2010)

How the values were obtained:
Format in all cases: biochemical
Akt1 = target: T1, Akt1 (Homo sapiens, UniProt P31749); assay: Akt1 Kinase Assay (Luciferase-Coupled Chemiluminescent Kinase assay, LCCA); conditions: human Akt1 kinase domain residues R144-A480, activated with PDK1; 1 μM ATP; read-out: Akt-1 IC50
T1 construct: made in house
Protocol: (§1) Kinase activity and compound inhibition are investigated using one or more of the three assay formats described below. The ATP concentrations for each assay are selected to be close to the Michaelis-Menten constant (KM) for each individual kinase. Dose-response experiments are performed at 10 different inhibitor concentrations in a 384-well plate format. The data are fitted to four-parameter equation (2) below; where Y is the observed signal, X is the inhibitor concentration, Min is the background signal in the absence of enzyme (0% enzyme activity), Max is the signal in the absence of inhibitor (100% enzyme activity), IC50 is the inhibitor concentration at 50% enzyme inhibition and H represents the empirical Hill's slope to measure the cooperativity. Typically H is close to unity. Y=Min+(Max−Min)/(1+(X/IC50)^H) Equation (2) p70S6 Kinase Assay
Biochemical activity of Akt1 kinase was assessed using a Luciferase-Coupled Chemiluminescent Kinase assay (LCCA) format. Kinase activity was measured as the percent ATP remaining following the kinase reaction. Remaining ATP was detected by luciferase-luciferin-coupled chemiluminescence. Specifically, the reaction was initiated by mixing test compounds, 1 μM ATP, 5 μM crosstide peptide and 1.3 nM Akt1 (baculovirus expressed human Akt1 kinase domain residues R144-A480, activated with PDK1) in a 20 uL assay buffer (20 mM Tris-HCL pH 7.5, 10 mM MgCl2, 0.01% Triton X-100, 1 mM DTT, 3 mM MnCl2). The mixture is incubated at ambient temperature for 3 hours after which 20 μL luciferase-luciferin mix is added and the chemiluminescent signal read using a Wallac Victor2 reader. The luciferase-luciferin mix consists of 50 mM HEPES, pH 7.8, 8.5 μg/mL oxalic acid (pH 7.8), 5 (or 50) mM DTT, 0.4% Triton X-100, 0.25 mg/mL coenzyme A, 63 uM AMP, 28 μg/mL luciferin and 40,000 units/mL luciferase.

p70S6K = target: T2, p70S6K (Homo sapiens, UniProt P23443, T412E); assay: p70S6 Kinase Assay (Luciferase-Coupled Chemiluminescent Kinase assay, LCCA); conditions: human p70S6 kinase domain residues 1-421, T412E; 5 μM ATP; read-out: p70S6K IC50
T2 construct: human p70S6 kinase domain residues 1-421, containing a T412E mutation; made in house
T2 sequence (P23443 1-421 T412E): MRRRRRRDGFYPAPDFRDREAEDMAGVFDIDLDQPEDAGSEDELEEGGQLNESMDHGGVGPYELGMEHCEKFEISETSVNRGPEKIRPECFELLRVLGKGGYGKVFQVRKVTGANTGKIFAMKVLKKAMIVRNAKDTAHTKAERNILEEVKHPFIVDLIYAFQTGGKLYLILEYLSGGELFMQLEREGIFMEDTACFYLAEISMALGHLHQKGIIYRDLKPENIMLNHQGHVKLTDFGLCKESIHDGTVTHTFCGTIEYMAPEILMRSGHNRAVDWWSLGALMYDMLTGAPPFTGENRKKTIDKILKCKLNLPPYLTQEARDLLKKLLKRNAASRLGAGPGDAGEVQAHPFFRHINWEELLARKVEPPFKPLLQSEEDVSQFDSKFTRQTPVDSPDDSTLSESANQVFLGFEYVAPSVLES
Procedure, shortened: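 Luciferase-coupled chemiluminescence measured percent ATP remaining after the 2 h kinase reaction at ambient temperature, with ATP near the kinase's KM. Ten inhibitor concentrations were tested. IC50 was obtained from a Hill-equation fit.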

PDK1 = target: T3, PDK1 (Homo sapiens, UniProt O15530); assay: PDK1 Kinase Assay (Luciferase-Coupled Chemiluminescent Kinase assay, LCCA); conditions: human PDK1 kinase domain residues M51-T359; 0.5 μM ATP; read-out: PDK-1 IC50
T3 construct: human PDK1 kinase domain residues M51-T359; made in house
T3 sequence (O15530 51-359): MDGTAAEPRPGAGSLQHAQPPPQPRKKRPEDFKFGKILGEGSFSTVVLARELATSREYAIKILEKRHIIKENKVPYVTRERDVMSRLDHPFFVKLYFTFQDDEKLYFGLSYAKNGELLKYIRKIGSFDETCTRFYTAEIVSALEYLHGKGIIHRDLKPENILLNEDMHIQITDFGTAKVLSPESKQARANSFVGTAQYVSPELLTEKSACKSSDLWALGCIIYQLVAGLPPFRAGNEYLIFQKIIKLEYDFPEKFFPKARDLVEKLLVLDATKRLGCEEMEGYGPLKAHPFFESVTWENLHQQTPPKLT
Protocol: as §1
Biochemical activity of PDK1 kinase was assessed using a Luciferase-Coupled Chemiluminescent Kinase assay (LCCA) format. Kinase activity was measured as the percent ATP remaining following the kinase reaction. Remaining ATP was detected by luciferase-luciferin-coupled chemiluminescence. Specifically, the reaction was initiated by mixing test compounds, 0.5 μM ATP, 0.6 μM PDKtide peptide and 6 nM PDK1 (baculovirus expressed human PDK1 kinase domain residues M51-T359) in a 20 uL assay buffer (20 mM Hepes pH 7.5, 1 mM CaCl2, 0.03% CHAPS, 2 mM DTT). The mixture is incubated at ambient temperature for 3 hours after which 20 μL luciferase-luciferin mix is added and the chemiluminescent signal read using a Wallac Victor2 reader. The luciferase-luciferin mix consists of 50 mM HEPES, pH 7.8, 8.5 μg/mL oxalic acid (pH 7.8), 5 (or 50) mM DTT, 0.4% Triton X-100, 0.25 mg/mL coenzyme A, 63 uM AMP, 28 μg/mL luciferin and 40,000 units/mL luciferase.

T1 sequence (P31749 144-480): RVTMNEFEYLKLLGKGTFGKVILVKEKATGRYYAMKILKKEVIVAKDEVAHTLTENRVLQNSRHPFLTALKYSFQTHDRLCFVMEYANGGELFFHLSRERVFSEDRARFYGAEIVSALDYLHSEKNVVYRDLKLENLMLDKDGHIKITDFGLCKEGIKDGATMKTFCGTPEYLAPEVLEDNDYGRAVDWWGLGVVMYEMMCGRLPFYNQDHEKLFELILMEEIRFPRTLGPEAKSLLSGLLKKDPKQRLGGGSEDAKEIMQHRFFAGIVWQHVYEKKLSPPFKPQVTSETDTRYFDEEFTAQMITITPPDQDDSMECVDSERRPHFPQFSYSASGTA

SMILES	IC50 (Akt1)	IC50 (p70S6K)	IC50 (PDK1)
CCOc1nc(N)nc(N[C@@H](CCCN)C(=O)Nc2cccc(C(F)(F)F)c2)c1C#N [Example 129, N^2-[2-amino-5-cyano-6-(ethyloxy)pyrimidin-4-yl]-N-[3-(trifluoromethyl)phenyl]-L-ornithinamide]	> 2 µM	> 2 µM	> 2 µM
CSc1nc(N)nc(N(C)[C@@H](C)C(=O)Nc2cc(C(=O)NCCN(C)C)cc(C(F)(F)F)c2)c1C#N [Example 130, 3-({N-[2-amino5-cyano-6-(methylthio)pyrimidin-4-yl]-N-methyl-L-alanyl}amino)-N-[2-(dimethylamino)ethyl]-5-(trifluoromethyl)benzamide]	> 2 µM	< 0.05 µM	> 2 µM
CSc1nc(N)nc(N(C)[C@@H](C)C(=O)Nc2cc(C(=O)NCCN3CCOCC3)cc(C(F)(F)F)c2)c1C#N [Example 135, 3-({N-[2-amino-5-cyano-6-(methylthio)pyrimidin-4-yl]-N-methyl-L-alanyl}amino)-N-(2-morpholin-4-ylethyl)-5-(trifluoromethyl)benzamide]	> 2 µM	< 0.05 µM	> 2 µM
CSc1nc(N)nc(SC2CCN(c3cccc(C(F)(F)F)c3)C2=O)c1C#N (stereo not drawn) [Example 35, 2-amino-4-(methylthio)-6-({2-oxo-1-[3-(trifluoromethyl)phenyl]pyrrolidin-3-yl}thio)pyrimidine-5-carbonitrile]	> 2 µM	< 0.05 µM	> 2 µM
Nc1cc(SCC(=O)Nc2ccc(F)c(C(F)(F)F)c2)nc(N)n1 [Example 32, 2-[(2,6-diaminopyrimidin-4-yl)thio]-N-[4-fluoro-3-(trifluoromethyl)phenyl]acetamide]	> 2 µM	< 0.05 µM	> 2 µM
CSc1cc(NCC(=O)Nc2cccc(C(F)(F)F)c2)nc(N)n1 [Example 5]	> 2 µM	< 0.05 µM	> 2 µM
CSc1nc(N)nc(N[C@@H](CN(C)C)C(=O)Nc2cccc(C(F)(F)F)c2)c1C#N [Example 142, N~2~-[2-amino-5-cyano-6-(methylthio)pyrimidin-4-yl]-3-(dimethylamino)-N-[3-(trifluoromethyl)phenyl]-L-alaninamide]	> 2 µM	0.05 to 0.5 µM	> 2 µM
CSc1nc(N)nc(SCC(=O)Nc2ccc(C(F)(F)F)cn2)c1C#N [Example 4]	> 2 µM	< 0.05 µM	> 2 µM
CSc1nc(N)nc(NCC(=O)Nc2cccc(C(F)(F)F)c2)c1C#N [Example 20, N^2-[2-amino-5-cyano-6-(methylthio)pyrimidin-4-yl]-N-[3-(trifluoromethyl)phenyl]glycinamide]	> 2 µM	0.05 to 0.5 µM	> 2 µM
CCOc1nc(N)nc(N(C)[C@@H](CCCCN)C(=O)Nc2cccc(C(F)(F)F)c2)c1C#N [Example 136, N~2~-[2-amino-5-cyano-6-(ethyloxy)pyrimidin-4-yl]-N~2~-methyl-N-[3-(trifluoromethyl)phenyl]-L-lysinamide]	> 2 µM	< 0.05 µM	> 2 µM
CCCCOc1cccc(NC(=O)CSc2nc(N)nc(SC)c2C#N)c1 [Example 22, 2-{[2-amino-5-cyano-6-(methylthio)pyrimidin-4-yl]thio}-N-[3-(butyloxy)phenyl]acetamide]	> 2 µM	< 0.05 µM	> 2 µM
CSc1nc(N)nc(N[C@@H](COC(C)=O)C(=O)Nc2cccc(C(F)(F)F)c2)c1C#N [Example 138, (2S0-2-{[2-amino-5-cyano-6-(methylthio)pyrimidin-4-yl]amino}-3-oxo-3-{[3-(trifluoromethyl)phenyl]amino}propyl acetate]	> 2 µM	0.05 to 0.5 µM	> 2 µM
CSc1nc(N)nc(N[C@@H](C)C(=O)Nc2cc(OCCN(C)C)cc(C(F)(F)F)c2)c1C#N [Example 137, N~2~-[2-amino-5-cyano-6-(methylthio)pyrimidin-4-yl]-N-[3-{[2-(dimethylamino)ethyl]oxy}-5-(trifluoromethyl)phenyl]-L-alaninamide]	> 2 µM	< 0.05 µM	> 2 µM
CSc1nc(N)nc(N(C)[C@@H](C)C(=O)Nc2cccc(Br)c2)c1C#N [Example 133, N~2~-[2-amino-5cyano-6-(methylthio)pyrimidin-4-yl]-N-(3-bromophenyl)-N~2~-methyl-L-alaninamide]	> 2 µM	< 0.05 µM	> 2 µM
CSc1nc(N)nc(SCC(=O)Nc2cc(C(F)(F)F)ccn2)c1C#N [Example 37, 2-{[2-amino-5-cyano-6-(methylthio)pyrimidin-4-yl]thio}-N-[4-(trifluoromethyl)pyridin-2-yl]acetamide]	> 2 µM	< 0.05 µM	> 2 µM
COc1nc(N)nc(NNC(=O)Nc2cccc(C(F)(F)F)c2)c1C#N [Example 140, 2-[2-amino-5-cyano-6-(methyloxy)pyrimidin-4-yl]-N-[3-(trifluoromethyl)phenyl]hydrazinecarboxamide]	> 2 µM	0.05 to 0.5 µM	> 2 µM
CSc1nc(N)nc(SCC(=O)Nc2cccc(C(F)(F)F)c2)c1C#N [Example 21, 2-{[2-amino-5-cyano-6-(methylthio)pyrimidin-4-yl]thio}-N-[3-(trifluoromethyl)phenyl]acetamide]	> 2 µM	< 0.05 µM	> 2 µM
CSc1nc(N)nc(SCC(=O)N(C)c2cccc(C(F)(F)F)c2)c1C#N [Example 16, 2-{(2-amino-5-cyano-6-(methylthio)pyrimidin-4-yl]thio}-N-methyl-N-[3-(trifluoromethyl)phenyl]acetamide]	> 2 µM	0.05 to 0.5 µM	> 2 µM
CSc1nc(N)nc(N(C)[C@@H](C)C(=O)Nc2cccc(OC(F)(F)F)c2)c1C#N [Example 132, N~2~-[2-amino-5-cyano-6-(methylthio)pyrimidin-4-yl]-N~2~-methyl-N-{3-[(trifluoromethyl)oxy]phenyl}-L-alaninamide]	> 2 µM	< 0.05 µM	> 2 µM
CSc1nc(N)nc(N(C)[C@@H](C)C(=O)Nc2cc(OC(F)(F)F)ccc2OCCN(C)C)c1C#N [Example 134, N~2~-[2-amino-5-cyano-6-(methylthio)pyrimidin-4-yl]-N-{2-{[2-(dimethylamino)ethyl]oxy}-5-[(trifluoromethyl)oxy]phenyl}-N~2~-methyl-L-alaninamide]	> 2 µM	< 0.05 µM	> 2 µM
CSc1nc(N)nc(SCC(=O)n2nc(C)cc2C)c1C#N [Example 26, 2-amino-4-{[2-(3,5-dimethyl-1H-pyrazol-1-yl)-2-oxoethyl]thio}-6-(methylthio)pyrimidine-5-carbonitrile]	> 2 µM	< 0.05 µM	> 2 µM
CSc1nc(N)nc(N(C)[C@@H](C)C(=O)Nc2cc(C(=O)NCCCN3CCN(C)CC3)cc(C(F)(F)F)c2)c1C#N [Example 131, 3-({N-[2-amino-5-cyano-6-(methylthio)pyrimidin-4-yl]-N-methyl-L-alanyl}amino)-N-[3-(4-methylpiperazin-1-yl)propyl]-5-(trifluoromethyl)benzamide]	> 2 µM	< 0.05 µM	> 2 µM
